# In article PMC8836147, “Design, Synthesis and Antifungal/Nematicidal Activity of Novel 1,2,4-Oxadiazole Derivatives Containing Amide Fragments” (International Journal of Molecular Sciences, 2022):
# Key:
# B. xylophilus = assay: microbe, parasite or virus in culture; conditions: Bursaphelenchus xylophilus, 48 h, read-out: Corrected Mortality Rate ± SD (%) B. xylophilus
# Text: (§1) M. incognita (parasitic on tomato plants), A. besseyi (potato dextrose agar–Botrytis cinerea breeding), B. xylophilus (potato dextrose agar–Botrytis cinerea breeding), and C. elegans (nematode growth medium–inactivated Escherichia coli OP50 cultivation) were provided by the Fine Chemical Research and Development Center of Guizhou University (Guizhou, China). The methodology used for the nematocidal bioassays of these target compounds was modified in the light of the conventional methods reported in the previously published literature. The nematicidal activity of the target compounds against four nematodes was determined using 48-well biochemical culture dishes. All of the compounds were dissolved with 100 μL DMF and were diluted with 1% Tween-80 to obtain 200 and 50 μg/mL concentrations for the bioassays. Fosthiazate and tioxazafen were used as positive controls at the same concentrations, and a negative control group was prepared without compounds using the same methodology. An amount of 10 µL of nematode suspension (about 50 nematodes) and 300 µL of the trial solution were added to corresponding hole, and each treatment was set to three repetitions. All of the 48-well plates were placed in a biochemical incubator at 27 °C for dark light culture. […] Corrected mortality (%) = [(mortality of treatment % − mortality of negative control %)/(1 − mortality of negative control %)] × 100%(3)
# C. elegans = assay: microbe, parasite or virus in culture; conditions: 48 h; for mortality at 50 µg/mL / mortality at 200 µg/mL: Caenorhabditis elegans, read-out: Corrected Mortality Rate ± SD (%) C. elegans
# Text: as §1
# A. besseyi = assay: microbe, parasite or virus in culture; conditions: Aphelenchoides besseyi, 48 h, read-out: Corrected Mortality Rate ± SD (%) A. besseyi
# Text: as §1
# M. incognita = assay: microbe, parasite or virus in culture; conditions: Meloidogyne incognita, 48 h, read-out: Corrected Mortality Rate ± SD (%) M. incognita
# Text: as §1
# B. cinerea = assay: In vitro mycelium growth inhibition test; format: cell-based; conditions: Botrytis cinerea; 50 μg/mL; mycelial growth; mean ± SD of three replicates; read-out: Inhibition Rate (%) B. cinerea
# Protocol: (§2) B. cinerea and S. scleotiorum were kindly provided by the Department of Pesticides, College of Plant Protection, Nanjing Agricultural University (Nanjing, China). All compounds were evaluated for mycelium growth inhibition tests against the two plant pathogenic fungi mentioned in previous reports. These two fungi were inoculated on potato dextrose agar (PDA) plates and were grown in biochemical incubators at 25 ± 1 °C for 2–4 days. The new mycelium was used to determine the antifungal activity. The target compounds were dissolved in 100 µL DMF, and they were then added into the PDA media to make the concentration 50 µg/mL. Mycelia dishes of about 5 mm in diameter were cut from the culture medium. Mycelium were picked up with a sterile inoculation needle, and the sample was inoculated in the middle of a PDA plate in a sterile environment. Afterwards, a preliminary screening of fungal activity was performed. […] Each test was carried out three times. The radial growth of the fungal colonies was gauged and recorded when the diameters of the blank control mycelia reached 5.0–5.5 cm. […] The final data were analyzed using SPSS v.25.0 (IBM, New York, NY, USA). The following formula was used to calculate the fungi inhibition rate. Inhibition rate (%) = [(Mycelium diameter of negative control − Mycelium diameter of treatment)/(Mycelium diameter of negative control − 0.5)] × 100%(1)
# S. sclerotiorum = assay: In vitro mycelium growth inhibition test; format: cell-based; conditions: Sclerotinia sclerotiorum; 50 μg/mL; mycelial growth; mean ± SD of three replicates; read-out: Inhibition Rate (%) S. sclerotiorum
# Protocol: as §2
SMILES,mortality at 50 µg/mL (B. xylophilus),mortality at 200 µg/mL (B. xylophilus),mortality at 50 µg/mL (C. elegans),mortality at 200 µg/mL (C. elegans),mortality at 50 µg/mL (A. besseyi),mortality at 200 µg/mL (A. besseyi),mortality at 50 µg/mL (M. incognita),mortality at 200 µg/mL (M. incognita),inhibition at 50 µg/mL (B. cinerea),inhibition at 50 µg/mL (S. sclerotiorum),Corrected Mortality Rate ± SD (%) C. elegans (C. elegans; 50 µg/mL),Corrected Mortality Rate ± SD (%) C. elegans (C. elegans; 200 µg/mL)
O=C(NCc1ccc(F)cc1F)c1nc(-c2ccc(Br)nc2)no1 [Compound F19],0%,30.7 ± 1.1%,64.1 ± 1.2%,93.5 ± 2.6%,0%,23.5 ± 2.6%,7.9 ± 1.2%,30.7 ± 1.1%,42.2 ± 0.2%,35.8 ± 0.8%,–,–
O=C(NCCc1ncc(C(F)(F)F)cc1Cl)c1nc(-c2ccc(Br)nc2)no1 [Compound F18],0%,15.1 ± 1.2%,53.6 ± 2.4%,90 ± 2.7%,0%,23 ± 2.3%,0%,36.7 ± 2.1%,55.9 ± 1.3%,34.9 ± 1.1%,–,–
"O=C(NCCc1ncc(C(F)(F)F)cc1Cl)c1nc(-c2ccc(Cl)cc2)no1 [Compound F10, N-(2-(3-chloro-5-(trifluoromethyl)pyridin-2-yl)ethyl)-3-(4-chlorophenyl)-1,2,4-oxadiazole-5-carboxamide]",0%,12.1 ± 1.7%,69.3 ± 1.8%,100%,0%,23.6 ± 2.2%,0%,15.8 ± 3.5%,24.2 ± 1.7%,48.6 ± 1.2%,–,–
O=C(Nc1ccc(Cl)cc1Cl)c1nc(-c2ncc(C(F)(F)F)cc2Cl)no1 [Compound F24],0%,21.2 ± 1.5%,9.6 ± 1.1%,24.6 ± 1.4%,0%,23.4 ± 1.6%,0%,18.5 ± 1.1%,38.5 ± 0.5%,1.8 ± 0.8%,–,–
O=C(NCCc1ncc(C(F)(F)F)cc1Cl)c1nc(-c2ncc(C(F)(F)F)cc2Cl)no1 [Compound F22],0%,17.1 ± 2.2%,45.7 ± 2.3%,80.2 ± 1.5%,0%,26.5 ± 2.1%,0%,18.3 ± 1.7%,45.2 ± 0.9%,37.6 ± 1.9%,–,–
"Cc1ccc(-c2noc(C(=O)NCCc3ccccn3)n2)cc1 [Compound F5, N -(2-(pyridin-2-yl)ethyl)-3-(p-tolyl)-1,2,4-oxadiazole-5-carboxamide]",0%,8.1 ± 2.2%,67.9 ± 2.3%,94.6 ± 1.7%,0%,22.5 ± 3.2%,3.5 ± 1.3%,35 ± 2.2%,24.9 ± 1.6%,56.3 ± 1.2%,–,–
"O=C(Nc1ccc(Cl)cc1Cl)c1nc(-c2ccc(Cl)cc2)no1 [Compound F12, 3-(4-chlorophenyl)-N-(2,4-dichlorophenyl)-1,2,4-oxadiazole-5-carboxamide]",0%,20.8 ± 2.5%,8.6 ± 1.6%,47.6 ± 1.2%,0%,18.8 ± 1.1%,13.8 ± 2.3%,54.8 ± 2.5%,29.1 ± 1.4%,24.8 ± 1.4%,–,–
"Cc1ccc(-c2noc(C(=O)NCCc3ncc(C(F)(F)F)cc3Cl)n2)cc1 [Compound F6, N-(2-(3-chloro-5-(trifluoromethyl)pyridin-2-yl)ethyl)-3-(p-tolyl)-1,2,4-oxadiazole-5-carboxamide]",0%,11.6 ± 2.1%,100%,100%,0%,29.4 ± 2.3%,7.9 ± 2.2%,44.6 ± 3.8%,22.9 ± 1.1%,56 ± 1.4%,100.0%,100.0%
"Cc1ccc(-c2noc(C(=O)Nc3ccc(Cl)cc3Cl)n2)cc1 [Compound F8, N-(2,4-dichlorophenyl)-3-(p-tolyl)-1,2,4-oxadiazole-5-carboxamide]",0%,18.1 ± 1.2%,47.6 ± 1.7%,77.6 ± 1.2%,0%,6.1 ± 1.2%,4.9 ± 2.1%,23.9 ± 3.3%,22.7 ± 1.3%,21.1 ± 1.7%,–,–
"CCOP(=O)(SC(C)CC)N1CCSC1=O (stereo not drawn) [Fosthiazate, fosthiazate, reference compound]",38.8 ± 1.3%,72.4 ± 1.9%,100%,100%,6.1 ± 3.1%,38.4 ± 1.9%,91.4 ± 2.5%,100%,–,–,–,–
"O=C(NCCc1ncc(C(F)(F)F)cc1Cl)c1nc(-c2ccccc2)no1 [Compound F2, N-(2-(3-chloro-5-(trifluoromethyl)pyridin-2-yl)ethyl)-3-phenyl-1,2,4-oxadiazole-5-carboxamide]",0%,5.5 ± 1.6%,10.3 ± 1.4%,46.7 ± 2.6%,0%,15.1 ± 1.6%,7.4 ± 3.2%,42.6 ± 3.6%,23.6 ± 0.6%,48.6 ± 1.6%,–,–
O=C(NCc1ccc(F)cc1F)c1nc(-c2ncc(C(F)(F)F)cc2Cl)no1 [Compound F23],0%,20.3 ± 1.4%,10.6 ± 1.2%,27.6 ± 1.2%,0%,21.5 ± 2.2%,0%,19.1 ± 2.2%,41.5 ± 0.5%,34.6 ± 0.1%,–,–
O=C(NCCc1ccccn1)c1nc(-c2ncc(C(F)(F)F)cc2Cl)no1 [Compound F21],0%,7.1 ± 1.9%,32.5 ± 2%,76.8 ± 0.9%,0%,13 ± 0.5%,0%,23.5 ± 2.4%,38.8 ± 0.7%,35.1 ± 0.1%,–,–
"Cc1ccc(-c2noc(C(=O)NCc3ccc(F)cc3F)n2)cc1 [Compound F7, N-(2,4-difluorobenzyl)-3-(p-tolyl)-1,2,4-oxadiazole-5-carboxamide]",0%,28.1 ± 2.4%,68.2 ± 2.3%,91.9 ± 2.5%,0%,12.2 ± 2.1%,5.3 ± 1.1%,24.9 ± 3.2%,46.4 ± 0.8%,56.4 ± 0.1%,–,–
"O=C(Nc1ccc(Cl)cc1Cl)c1nc(-c2ccccc2)no1 [Compound F4, N-(2,4-dichlorophenyl)-3-phenyl-1,2,4-oxadiazole-5-carboxamide]",0%,25.3 ± 1.7%,71.4 ± 2.2%,98.4 ± 2.3%,0%,11.7 ± 1.4%,5.9 ± 1.3%,23.2 ± 1.4%,20.9 ± 0.1%,31.2 ± 0.7%,–,–
"c1ccc(-c2noc(-c3cccs3)n2)cc1 [Tioxazafen, tioxazafen, reference compound]",0%,13.5 ± 1.2%,90.4 ± 0.7%,100%,8.8 ± 2.4%,61.4 ± 1.7%,12.6 ± 3.2%,23.9 ± 3.3%,–,–,–,–
O=C(NCCc1ccccn1)c1nc(-c2ccc(Br)nc2)no1 [Compound F17],0%,14.1 ± 1.9%,54.2 ± 3.1%,89.7 ± 1.5%,0%,20.2 ± 1.2%,0%,33.5 ± 1.4%,27.6 ± 1.4%,10.1 ± 1.2%,–,–
